Literature values, collected in patent publication US20100136109A1, “SUSTAINED RELEASE” (priority 2007, published 2010).

Conditions: in vivo

Row | half-life | Compound
1 | approx 12 hours | N[C@@H](Cc1cc(I)c(Oc2ccc(O)c(I)c2)c(I)c1)C(=O)O [Formulation T3, triiodothyronine]
2 | 170 h | N[C@@H](Cc1cc(I)c(Oc2cc(I)c(O)c(I)c2)c(I)c1)C(=O)O [Formulation T4, thyroxine]
